PubChem BioAssay AID1996
Converted amounts (≈) assume the structure as drawn.

Details: buffer; pH 7.4; 200.0 µM

SMILES	solubility kinetic
N=C1/C(=C/c2cccn2Cc2ccc(F)cc2)C(=O)N=C2SC=CN12	< 0.2 µg/mL
O=C(COC(=O)/C=C/c1ccc([N+](=O)[O-])cc1)NCC1CCCCC1	1.5 µg/mL (≈ 4.33 µM)
COc1ccc(CC(=O)N2CCCC2)c(OC)c1	36.6 µg/mL (≈ 147 µM)
COc1ccc(NS(=O)(=O)c2csc(C(N)=O)c2)cc1	> 46.9 µg/mL
COC(=O)C1=C(O)/C(=C/c2cccc(OC)c2O)N=C1C	35.1 µg/mL (≈ 121 µM)
CCCCNC(=O)COC(=O)c1ccc(C)c(NC(=O)c2ccco2)c1	17.8 µg/mL (≈ 49.7 µM)
CCC1(CC)Cc2ccccc2-c2nc(CN(C)C)[nH]c(=O)c21	10.8 µg/mL (≈ 34.7 µM)
COc1ccc(CCN2Cc3c(N)cccc3C2=O)cc1OC	> 46.9 µg/mL
O=C1CC2c3ccccc3C1C1C(=O)N(Cc3ccccc3)C(=O)C21 (centres undefined)	> 49.7 µg/mL
Cc1cc(CNC(=O)COc2ccc([N+](=O)[O-])cc2)c2ccccc2n1	2.3 µg/mL (≈ 6.55 µM)
O=Cc1cc2cc3c(cc2nc1Cl)OCCO3	0.9 µg/mL (≈ 3.61 µM)
Cc1ccc(C)c(-c2csc(NC(=O)C3=COCCO3)n2)c1	11.3 µg/mL (≈ 35.7 µM)
COc1ccccc1NC(=S)NC(=O)/C=C/c1cccs1	0.4 µg/mL (≈ 1.26 µM)
N#Cc1c(C(F)(F)F)cc(-c2cccs2)nc1SCC(=O)O	46.1 µg/mL (≈ 134 µM)
O=C(Nc1nccs1)c1ccc(Br)s1	5.6 µg/mL (≈ 19.4 µM)
CCN(CC)C(=O)N[C@H]1C[C@@H]2c3cccc4[nH]cc(c34)C[C@H]2N(C)C1	14.1 µg/mL (≈ 41.4 µM)
O=C1Nc2ccc(Br)cc2C1(O)c1ccc(F)cc1 (centres undefined)	> 48.3 µg/mL
CCOC(=O)c1c(C)oc2c1c(C=NCC1CCCO1)c(O)c1ccccc12 (centres undefined)	< 0.8 µg/mL
COc1ccccc1Nc1nc(-c2sc(N)nc2C)cs1	19.2 µg/mL (≈ 60.3 µM)
Cc1ccnc(NC(=O)CSc2ccccn2)c1	36.7 µg/mL (≈ 142 µM)
O=C1CC(c2ccccc2)CC(O)=C1C=NCCc1ccccc1 (centres undefined)	2.1 µg/mL (≈ 6.57 µM)
Cl.O=C(Nc1ncc([N+](=O)[O-])s1)c1cccs1	> 43.8 µg/mL
COC(=O)c1ccc(OCC2NCCc3cc(OC)c(OC)cc32)cc1 (centres undefined)	> 53.6 µg/mL
CC(=O)c1ccc(NC(=O)NC2CCCCCCC2)cc1	5.1 µg/mL (≈ 17.7 µM)

SMILES	solubility kinetic
O=C1[C@@H]2[C@H]3CC[C@H](C3)[C@@H]2C(=O)N1O	27 µg/mL (≈ 149 µM)
COc1ccccc1NC(=O)c1ccccc1Oc1ccccc1	< 0.7 µg/mL
Cn1cccc1C(=O)OCC(=O)Nc1ccc2[nH]c(=O)[nH]c2c1	11.1 µg/mL (≈ 35.3 µM)
COC(=O)c1cc(C(C)=O)c(C)[nH]c1=O	> 31.4 µg/mL
C[C@@H](C(=O)Nc1cccnc1)n1c(=O)[nH]c2ccccc2c1=O	> 46.5 µg/mL
COc1cccc(CNC(=O)c2cccnc2Sc2ccccc2)c1	5.6 µg/mL (≈ 16 µM)
Cc1ccc(Oc2ccc(C(F)(F)F)cc2[N+](=O)[O-])c([N+](=O)[O-])n1	7.2 µg/mL (≈ 21 µM)
CCOc1ccccc1NC(=O)c1ccc2c(c1)C(=O)N(CC(C)C)C2=O	< 0.4 µg/mL
O=c1c2cc(F)ccc2[nH]c(=S)n1Cc1ccc(F)cc1	0.9 µg/mL (≈ 2.96 µM)
COc1ccc(NC(=O)Nc2nc(C)cc(C)n2)c(OC)c1	> 45.3 µg/mL
O=[N+]([O-])/C=C1\CCCCCN1	> 23.4 µg/mL
C=CCn1c(=O)c(C(=O)Nc2ccc(C)cc2)c(O)c2ccccc21	< 0.4 µg/mL
Cc1ccc(NC(=O)c2cccs2)cc1[N+](=O)[O-]	2.4 µg/mL (≈ 9.15 µM)
O=C(Nc1cc([N+](=O)[O-])ccc1O)c1cccc([N+](=O)[O-])c1	37.1 µg/mL (≈ 122 µM)
O=C(CCC(=O)c1cccs1)NC1CCCCCC1	25.6 µg/mL (≈ 91.6 µM)
Fc1ccc(CN2CCCN(C(=S)Nc3ccc(F)cc3)CC2)cc1	> 54.2 µg/mL
Cc1cc(C)cc(OCC(=O)Nc2ccc3c(c2)OCCO3)c1	2 µg/mL (≈ 6.38 µM)
CC1=C(C(=O)OC(C)C)C(c2cccs2)NC(=O)N1 (centres undefined)	37.2 µg/mL (≈ 133 µM)
O=C(COC(=O)COc1ccccc1)NCCC1=CCCCC1	38.5 µg/mL (≈ 121 µM)
COc1ccc(S(=O)(=O)N(C)C)cc1NC(=O)COC(=O)C1CC1	> 53.5 µg/mL
Cc1ccccc1C(=O)Nc1cccc(NC(=O)c2cccnc2)c1	45.8 µg/mL (≈ 138 µM)
O=C(CNC(=O)c1ccncc1)N/N=C/c1ccc(Br)cc1	> 54.2 µg/mL
Cn1c(C(=O)N[C@@H](Cc2ccccc2)C(=O)O)cc2cc(F)ccc21	> 51.1 µg/mL
CC(Cc1ccccc1)C(=O)Nc1ccc(Br)cc1 (centres undefined)	3.2 µg/mL (≈ 10.1 µM)

SMILES	solubility kinetic
Cc1ccnc(NC(=O)CC(c2ccccc2)c2ccccc2)n1	35.7 µg/mL (≈ 112 µM)
Nc1nnc(SCC(=O)OCC(=O)c2ccccc2)s1	> 46.4 µg/mL
O=S(=O)(c1ccc(N2CCCC2)nc1)N1CCCC1	36.4 µg/mL (≈ 129 µM)
COc1cccc(NC(=O)N2CCCCCC2)c1	> 37.2 µg/mL
O=C(Cc1c[nH]c2ccccc12)N1CCN(c2ccccc2)CC1	3.9 µg/mL (≈ 12.2 µM)
Cc1ccc(C2(CCNCc3ccco3)CCOC(C(C)C)C2)cc1 (centres undefined)	> 51.2 µg/mL
CCC(C)[C@H](NC(=O)Nc1ccccc1F)C(=O)O (some centres undefined)	> 40.2 µg/mL
CCOc1ccc(-n2ccnc(SCC(=O)NC3CCCC3)c2=O)cc1	32.6 µg/mL (≈ 87.3 µM)
CN(C)C(=O)c1ccc(=O)n(Cc2ccc(Cl)cc2Cl)c1	> 48.8 µg/mL
COC(=O)c1ccc(NC(=O)c2cccnc2)cc1	> 38.4 µg/mL
Cc1ccc(Nc2nc(C)cc(C)c2C(N)=O)c(C)c1	> 40.4 µg/mL
COc1ccccc1C1CCN(Cc2ccccc2)CC1	31.1 µg/mL (≈ 111 µM)
COc1cc(OC)nc(Oc2ccc(N)c(C)c2)n1	> 39.2 µg/mL
CCN(CC)S(=O)(=O)c1ccc(C(=O)Nc2cc(S(=O)(=O)N3CCOCC3)ccc2O)cc1	12.2 µg/mL (≈ 24.5 µM)
CC(=O)c1cccc(NC(=O)CCCSc2ccccc2)c1	2.9 µg/mL (≈ 9.25 µM)
COc1ccc(C(C)=O)cc1CC(=O)NC1CCCCCC1	39.2 µg/mL (≈ 129 µM)
Cc1ccnc(NC(=O)COC(=O)C23CC4CC(CC(C4)C2)C3)n1	8.7 µg/mL (≈ 26.4 µM)
CC(=O)c1sc(NC(=O)c2ccc(Cl)cc2)nc1C	0.5 µg/mL (≈ 1.7 µM)
COc1cccc(NC(=O)CN2C(=O)C(=O)N(C3CCCC3)C2=O)c1	> 51.8 µg/mL
Cc1cccc(N2C(=O)Cc3ccccc3C2=O)c1	30.7 µg/mL (≈ 122 µM)
CC1(C)CC(=O)c2sc(NS(=O)(=O)c3ccccc3)nc2C1	48.9 µg/mL (≈ 145 µM)
COc1ccc(OCC(=O)NCCCCCCNC(=O)COc2ccc(OC)cc2)cc1	2.6 µg/mL (≈ 5.85 µM)
CCn1c(Oc2ccc(F)cc2)nc2c1c(=O)n(C)c(=O)n2C	> 47.7 µg/mL
O=C(Nc1ccc(N2CCOCC2)c(F)c1)c1cccs1	17 µg/mL (≈ 55.5 µM)

SMILES	solubility kinetic
CNC(=O)c1cc(C(=O)c2ccc(C(F)(F)F)cc2)c[nH]1	1.8 µg/mL (≈ 6.08 µM)
Cc1csc(NS(=O)(=O)c2ccc(Cl)cc2)n1	42.4 µg/mL (≈ 147 µM)
CSc1sccc1/C=N/O	18.2 µg/mL (≈ 105 µM)
Cc1cc(C)cc(NC(=O)[C@@H](NC(=O)c2ccco2)C(C)C)c1	2.8 µg/mL (≈ 8.91 µM)
COc1ccc(CCC(C)NCCc2ccc(Cl)cc2Cl)cc1 (centres undefined)	21.4 µg/mL (≈ 60.7 µM)
CC(Oc1ccccc1)C(=O)Nc1cccc([N+](=O)[O-])c1 (centres undefined)	> 42.9 µg/mL
COc1ccccc1NC(=O)NCCCCc1ccccc1	5.3 µg/mL (≈ 17.8 µM)
Cc1cc(NS(=O)(=O)c2ccc(NC(=O)c3ccc(F)cc3)cc2)nc(C)n1	> 60.1 µg/mL
O=C(CC(c1ccccc1)c1ccccc1)NCCOCc1ccccc1	20.1 µg/mL (≈ 55.9 µM)
O=C(NC(=S)N1CCCCCC1)c1ccccc1	> 39.4 µg/mL
O=S(=O)(NCCc1ccccn1)c1ccc(OC(F)(F)F)cc1	51.9 µg/mL (≈ 150 µM)
CC(C)CCN1CCN(Cc2ccon2)CC1CCO (centres undefined)	> 42.2 µg/mL
O=C(O)c1ccc(Cn2cc(/C=C\[N+](=O)[O-])c3ccccc32)o1	> 46.8 µg/mL
CCc1ccccc1NC(=S)N(CCN(C)C)C(C)c1cccnc1 (centres undefined)	50.9 µg/mL (≈ 143 µM)
Cc1ccc(-n2c(SCC(N)=O)nnc2-c2cnccn2)cc1	> 49 µg/mL
CCN(CC)C(=O)c1ccc(S(=O)(=O)c2ccccc2)cc1	33.6 µg/mL (≈ 106 µM)
Cc1cc(-c2ccccc2)nc(-c2ccccc2)c1C	< 0.6 µg/mL
Cc1cc(C)c(C#N)c(OCC(=O)Nc2ccccc2)n1	31.7 µg/mL (≈ 113 µM)
CCCc1nc(NCCO)c(C#N)c2c1CCCC2	> 38.9 µg/mL
Cc1cccc(C(=O)OCC(=O)N2CCc3ccccc3C2)c1O	6.8 µg/mL (≈ 20.9 µM)
COc1cc(C=NNC(=O)c2ccccc2-n2cccc2)ccc1O	> 50.3 µg/mL
O=c1c2ccccc2nc(-c2ccccc2)n1O	> 35.7 µg/mL
Cn1c(SCC(=O)N2CCCCCC2)nnc1-c1ccco1	> 48.1 µg/mL
CN1CCN(S(=O)(=O)Cc2ccc(Cl)cc2)CC1	33.8 µg/mL (≈ 117 µM)

SMILES	solubility kinetic
CN1CCCN(c2ccc([N+](=O)[O-])cc2)CC1	> 35.3 µg/mL
Cc1ccc(-n2c(C)nc3ccccc3c2=O)c(C)c1	> 39.6 µg/mL
Cc1ccc(CNC(=O)CSc2nc3ccccc3c(=O)n2CC2CCCO2)cc1 (centres undefined)	4.5 µg/mL (≈ 10.6 µM)
Cc1cc(C)nc(NC(=O)NC(=O)c2ccccc2)n1	> 40.5 µg/mL
CCOc1ccccc1NS(=O)(=O)c1csc(C(N)=O)c1	> 49 µg/mL
CC1([N+](=O)[O-])COC2(OC1)C(=O)Nc1ccccc12 (centres undefined)	> 39.6 µg/mL
Cc1ccc(NC(=O)C2CCCN2C(=O)NCc2ccccc2)cc1 (centres undefined)	5 µg/mL (≈ 14.8 µM)
CCN(C(=O)Cn1c([N+](=O)[O-])cnc1C)c1ccccc1	> 43.2 µg/mL
O=C(O)c1cccnc1SCc1cccc(Cl)c1	41.5 µg/mL (≈ 148 µM)
Cc1ccc(C)c(NC(=O)CCC(=O)N/N=C/c2cccnc2)c1	> 48.7 µg/mL
O=C(Nc1nc(-c2ccc(Cl)s2)cs1)c1ccco1	9.2 µg/mL (≈ 29.6 µM)
O=C(CNC(=O)c1ccccc1F)Nc1ccc2c(c1)CCC2	2.9 µg/mL (≈ 9.28 µM)
O=C(c1c(F)cccc1F)N(Cc1ccccc1)Cc1ccccc1	8.4 µg/mL (≈ 24.9 µM)
Cc1ccccc1-n1c(O)c(/C=N/NC(=O)c2ccncc2)c(=O)[nH]c1=O	> 54.8 µg/mL
CCCNC(=O)c1ccc(COc2ccc(C(C)(C)C)cc2)o1	10.9 µg/mL (≈ 34.6 µM)
CC1CCC(NC(=O)c2cc3c(s2)CCCC3)CC1 (centres undefined)	2.8 µg/mL (≈ 10.1 µM)
CCC1(C)Cc2ccccc2C(=O)N1 (centres undefined)	25.2 µg/mL (≈ 133 µM)
O=C(NCCc1ccc(F)cc1)c1ccncc1	> 36.6 µg/mL
N#Cc1ccccc1NC(=O)COC(=O)CCc1ccccc1	> 46.3 µg/mL
Cc1csc(NC(=O)CSCC(=O)O)c1-c1nc2ccccc2s1	48.6 µg/mL (≈ 128 µM)
Cc1ccc(NC(=O)NCCN2CCCCC2)cc1Cl	> 44.4 µg/mL
COc1cccc(Nc2nc(-c3ccccc3)nc3ccccc23)c1	3.2 µg/mL (≈ 9.77 µM)
COc1ccc(C)c2sc(=NC(=O)c3cccc(N4C(=O)CCC4=O)c3)n(C)c12	< 0.3 µg/mL
